Source: US8916183B2, “Pesticidal compositions and processes related thereto” (priority 2012, dated 2014)
Like-named read-outs stand apart in the source and are kept apart here.

Tests used:
Type in all cases: in vivo
[1] = tested on: Beet Armyworm (BAW) (Spodoptera exigua); experiment: Bioassay on beet armyworm (BAW), 128-well diet tray assay; details: Spodoptera exigua, read-out: % Mortality BAW 50 μg/cm^2
Procedure: (§1) Certain molecules disclosed in this document were tested against BAW and CEW using procedures described in the following examples. In the reporting of the results, the “BAW & CEW Rating Table” was used (See Table Section).
Bioassays on BAW (Spodoptera exigua)
Bioassays on BAW were conducted using a 128-well diet tray assay. […] Trays were covered with a clear self-adhesive cover and held at 25° C., 14:10 light-dark for five to seven days. Percent mortality was recorded for the larvae in each well; activity in the eight wells was then averaged. The results are indicated in the table entitled “Table 5: Biological Results” (See Table Section).

[2] = tested on: Corn Earworm (CEW) (Helicoverpa zea); experiment: Bioassay on corn earworm (CEW), 128-well diet tray assay; details: Helicoverpa zea, read-out: % Mortality CEW 50 μg/cm^2
Procedure: as §1
Bioassays on CEW (Helicoverpa zea)
Bioassays on CEW were conducted using a 128-well diet tray assay. […] Trays were covered with a clear self-adhesive cover and held at 25° C., 14:10 light-dark for five to seven days. Percent mortality was recorded for the larvae in each well; activity in the eight wells was then averaged. The results are indicated in the table entitled “Table 5: Biological Results” (See Table Section).

[3] = tested on: Green Peach Aphid (GPA) (Myzus persicae); experiment: Bioassay on green peach aphid (GPA), foliar spray on cabbage seedlings; details: read-out: % Mortality GPA 200 ppm
Procedure: Certain molecules disclosed in this document were tested against GPA using procedures described in the following example. In the reporting of the results, the “GPA Rating Table” was used (See Table Section).
Cabbage seedlings grown in 3-inch pots, with 2-3 small (3-5 cm) true leaves, were used as test substrate. The seedlings were infested with 20-50 GPA (wingless adult and nymph stages) one day prior to chemical application. Four pots with individual seedlings were used for each treatment. Test compounds (2 mg) were dissolved in 2 mL of acetone/methanol (1:1) solvent, forming stock solutions of 1000 ppm test compound. […] A hand-held aspirator-type sprayer was used for spraying a solution to both sides of […] leaves until runoff. Reference plants (solvent check) were sprayed with the diluent only containing 20% by volume of acetone/methanol (1:1) solvent. Treated plants were held in a holding room for three days at approximately 25° C. and ambient relative humidity (RH) prior to grading. Evaluation was conducted by counting the number of live aphids per plant under a microscope. […] Corrected % Control=100*(X−Y)/X • where • X=No. of live aphids on solvent check plants and • Y=No. of live aphids on treated plants
The results are indicated in the table entitled “Table 5: Biological Results” (See Table Section).

Compound | mortality at 50 µg/cm2 ([1]; beet armyworm, 50 μg/cm^2) [%] | mortality at 50 µg/cm2 ([2]; corn earworm, 50 μg/cm^2) [%] | mortality at 200 ppm ([3]; green peach aphid, 200 ppm) [%] | mortality at 50 µg/cm2 [1] [%] | mortality at 50 µg/cm2 [2] [%] | mortality at 200 ppm [3] [%]
CC1CS/C(=N\N=C\c2ccc(-c3ncn(-c4ccc(OC(F)(F)F)cc4)n3)cc2)N(c2ccccc2C(C)C)C1 (racemic) [Compound 178C] | 50 to 100 | 50 to 100 | 0 | – | – | –
CC(C)c1ccccc1N1C(=NN=Cc2ccc(-c3ncn(-c4ccc(OC(F)(F)F)cc4)n3)cc2)SCC1C (stereo in doubt) [Compound 155C, (Z)-3-(2-isopropylphenyl)-4-methyl-2-((E)-(4-(1-(4-(trifluoromethoxy)phenyl)-1H-1,2,4-triazol-3-yl)benzylidene)hydrazono)thiazolidine] | 50 to 100 | 50 to 100 | 0 | – | – | –
CS/C(=N\c1ccc(N(C)C)cc1)N/N=C/c1ccc(-c2ncn(-c3ccc(OC(F)(F)F)cc3)n2)cc1 [Compound 1C, N-(4-dimethylaminophenyl)-S-methyl-2-{4-[1-(4-trifluoromethoxyphenyl)-1H-[1,2,4]-triazol-3-yl]-benzylidene}-hydrazine-carbothioamide] | 50 to 100 | 50 to 100 | 0 | – | – | –
CCS/C(=N\c1c(Cl)cccc1Cl)N/N=C/c1ccc(-c2ncn(-c3ccc(OC(F)(F)F)cc3)n2)cc1 [Compound 2C] | 50 to 100 | 50 to 100 | 0 | – | – | –
CCCS/C(=N\c1c(Cl)cccc1Cl)N/N=C/c1ccc(-c2ncn(-c3ccc(OC(F)(F)F)cc3)n2)cc1 [Compound 3C] | 50 to 100 | 50 to 100 | 0 | – | – | –
Cc1cccc(C)c1/N=C(/N/N=C/c1ccc(-c2ncn(-c3ccc(OC(F)(F)F)cc3)n2)cc1)SC/C=C/Br [Compound 4C] | 50 to 100 | 50 to 100 | 0 to 80 | – | – | –
Cc1cccc(C)c1/N=C(/N/N=C/c1ccc(-c2ncn(-c3ccc(OC(F)(F)F)cc3)n2)cc1)SCc1c(F)cccc1F [Compound 5C] | 50 to 100 | 50 to 100 | 0 to 80 | – | – | –
Cc1cccc(C)c1/N=C(/N/N=C/c1ccc(-c2ncn(-c3ccc(OC(F)(F)F)cc3)n2)cc1)SCc1ccc(C(=O)O)cc1 [Compound 6C] | 50 to 100 | 50 to 100 | 0 | – | – | –
Cc1cccc(C)c1/N=C(/N/N=C/c1ccc(-c2ncn(-c3ccc(OC(F)(F)F)cc3)n2)cc1)SCc1ccc(F)cc1F [Compound 7C] | 0 | 50 to 100 | 0 | – | – | –
Cc1cccc(C)c1/N=C(/N/N=C/c1ccc(-c2ncn(-c3ccc(OC(F)(F)F)cc3)n2)cc1)SCc1ccc(OC(F)(F)F)cc1 [Compound 8C] | 50 to 100 | 50 to 100 | 0 to 80 | – | – | –
Cc1cccc(C)c1/N=C(/N/N=C/c1ccc(-c2ncn(-c3ccc(OC(F)(F)F)cc3)n2)cc1)SCC#C[Si](C)(C)C [Compound 9C] | – | – | – | 50 to 100 | 50 to 100 | 0
Cc1cccc(C)c1/N=C(/N/N=C/c1ccc(-c2ncn(-c3ccc(OC(F)(F)F)cc3)n2)cc1)SCc1ccccc1 [Compound 10C] | 50 to 100 | 50 to 100 | 0 | – | – | –
Cc1cccc(C)c1/N=C(/N/N=C/c1ccc(-c2ncn(-c3ccc(OC(F)(F)F)cc3)n2)cc1)SCc1ccccc1F [Compound 11C] | 50 to 100 | 50 to 100 | 0 | – | – | –
COC(=O)c1ccc(CS/C(=N\c2c(C)cccc2C)N/N=C/c2ccc(-c3ncn(-c4ccc(OC(F)(F)F)cc4)n3)cc2)cc1 [Compound 12C] | 50 to 100 | 50 to 100 | 0 to 80 | – | – | –
Cc1cccc(C)c1/N=C(/N/N=C/c1ccc(-c2ncn(-c3ccc(OC(F)(F)F)cc3)n2)cc1)SCc1ccc(S(N)(=O)=O)cc1 [Compound 13C] | 50 to 100 | 50 to 100 | 0 to 80 | – | – | –
Cc1cccc(C)c1/N=C(/N/N=C/c1ccc(-c2ncn(-c3ccc(OC(F)(F)F)cc3)n2)cc1)SCc1cccc2nsnc12 [Compound 14C] | 50 to 100 | 50 to 100 | 0 to 80 | – | – | –
Cc1cccc(C)c1/N=C(/N/N=C/c1ccc(-c2ncn(-c3ccc(OC(F)(F)F)cc3)n2)cc1)SCc1ocnc1-c1ccccc1 [Compound 15C] | 50 to 100 | 50 to 100 | 80 to 100 | – | – | –
Cc1cccc(C)c1/N=C(/N/N=C/c1ccc(-c2ncn(-c3ccc(OC(F)(F)F)cc3)n2)cc1)SCc1ccc(C(F)(F)F)o1 [Compound 16C] | 50 to 100 | 50 to 100 | 0 | – | – | –
Cc1cccc(C)c1/N=C(/N/N=C/c1ccc(-c2ncn(-c3ccc(OC(F)(F)F)cc3)n2)cc1)SCc1ccc(S(C)(=O)=O)cc1 [Compound 17C] | 50 to 100 | 50 to 100 | 0 to 80 | – | – | –
Cc1cccc(C)c1/N=C(/N/N=C/c1ccc(-c2ncn(-c3ccc(OC(F)(F)F)cc3)n2)cc1)SCc1ccc(S(=O)(=O)Nc2ccc(F)cc2)cc1 [Compound 18C] | 50 to 100 | 50 to 100 | 0 to 80 | – | – | –
COCCC(=O)S/C(=N\c1c(C)cccc1C)N/N=C/c1ccc(-c2ncn(-c3ccc(OC(F)(F)F)cc3)n2)cc1 [Compound 21C] | – | – | 0 | – | – | –
COc1cc(C)c(/N=C(/N/N=C(\C)c2ccc(-c3ncn(-c4ccc(OC(F)(F)F)cc4)n3)cc2)SCOC(=O)C(C)C)c(C)c1 [Compound 26C] | – | – | 0 | – | – | –
CCOCC(=O)OCS/C(=N\c1c(Cl)cc(OC)cc1Cl)N/N=C/c1ccc(-c2ncn(-c3ccc(OC(F)(F)F)cc3)n2)cc1 [Compound 32C] | – | – | 0 to 80 | – | – | –
COc1cc(Cl)c(/N=C(/N/N=C/c2ccc(-c3ncn(-c4ccc(OC(F)(F)F)cc4)n3)cc2)SCOC(=O)C(C)C)c(Cl)c1 [Compound 34C] | – | – | 0 to 80 | – | – | –
Cc1cccc(C)c1/N=C(/N/N=C/c1ccc(-c2ncn(-c3ccc(OC(F)(F)F)cc3)n2)cc1)SCOC(=O)C(C)OCC(F)(F)F (centres unmarked) [Compound 39C] | – | – | 0 | – | – | –
CC(C)c1ccccc1/N=C1\SCCCN1/N=C/c1ccc(-c2ncn(-c3ccc(C(F)(F)F)cc3)n2)cc1 [Compound 87C, (2Z,NE)-2-((2-isopropylphenyl)imino)-N-(4-(1-(4-(trifluoromethyl)phenyl)-1H-1,2,4-triazol-3-yl)benzylidene)-1,3-thiazinan-3-amine] | – | – | 0 to 80 | – | – | –
CCC(C)c1ccccc1N1/C(=N/N=C/c2ccc(-c3ncn(-c4ccc(OC(F)(F)F)cc4)n3)cc2)SCC1(O)C(F)(F)F (centres unmarked) [Compound 247C] | 50 to 100 | 50 to 100 | – | – | – | –
CC1(O)CS/C(=N\N=C\c2ccc(-c3ncn(-c4ccc(OC(F)(F)F)cc4)n3)cc2)N1c1ccccc1C1CCCC1 (centres unmarked) [Compound 249C] | 50 to 100 | 50 to 100 | – | – | – | –
Cc1cccc(N2/C(=N/N=C/c3ccc(-c4ncn(-c5ccc(OC(F)(F)F)cc5)n4)cc3)SCC2(C)O)c1C(C)C (centres unmarked) [Compound 252C] | 50 to 100 | 50 to 100 | – | – | – | –
CC(C)c1cc(F)ccc1N1/C(=N/N=C/c2ccc(-c3ncn(-c4ccc(OC(F)(F)F)cc4)n3)cc2)SCC1(C)O (centres unmarked) [Compound 258C] | 50 to 100 | 50 to 100 | – | – | – | –
